Measurements taken from patent US20180055797A1, “NON-RACEMIC KETONE SALTS FOR RAPID-ONSET NUTRITIONAL KETOSIS AND METABOLIC THERAPY” (KetoneAid Inc., priority 2016, published 2018).

How the values were obtained:
[1] = cited from earlier work
[2] = Ketone blood concentration after ingestion of 1,3-butanediol (FIG. 2, FIG. 3); format: in vivo, person; settings: for increase in ketones over pre consumption ketone levels: one person (D), two people racemic
From the text: FIG. 2 depicts an exemplary ketone blood concentration after ingestion of racemic 1,3-butanediol.
FIG. 3 depicts a ketone blood concentration after one person ingested (D) 1,3-butanediol, compared to the results of two people ingesting racemic 1,3-butanediol.
It should also be noted that only the D enantiomer is active in the body as a source of extracellular fuel that is then transported into the cells. Ketone blood level meters currently on the market only measure the blood level of the D enantiomer. Products containing racemic salts require two to three times the amount of sodium, calcium and potassium for an equal amount of D-β-hydroxybutyrate readings in the blood. A reason the potential levels of D-β-hydroxybutyrate in the blood is over double with chiral solutions is because the body has to waste energy and uses up some of the D-β-hydroxybutyrate to burn off the unnatural L-O-hydroxybutyrate.
FIG. 2 depicts exemplary results from ingestion of 33 ml racemic 1,3-butanediol. […] For example, as shown, the chiral form provided an increase in ketones of approximately 3.2 mmol/L whereas the racemic form provided approximately 0.9-1.0 mmol/L increases over pre consumption ketone levels.

**Q.** For `CC(O)CC(=O)[O-].[Na+]` (racemic) [racemic sodium β-hydroxybutyrate, sodium β-hydroxybutyrate], which “ketones level a person would be limited to” value ([1]; consuming at about 100-200% of the RDA for sodium) is on record?
**A.** approximately 0.5 mmol/L

**Q.** Which “D-β-hydroxybutyrate in the blood, (D) relative to racemic 1,3-butanediol” value ([2]; 33 ml of each, FIG. 3) does the source give for `CC(O)CCO` (stereo not drawn) [(D)-1,3-butanediol] here?
**A.** over double

**Q.** What about the “increase in ketones over pre consumption ketone levels” value ([2]; ingestion of 33 ml, FIG. 3) of the same compound?
**A.** approximately 3.2 mmol/L

**Q.** With `CC(O)CC(=O)[O-].[K+]` (racemic) [racemic potassium β-hydroxybutyrate, potassium β-hydroxybutyrate] as the compound, how does the “ketones level a person would be limited to reaching” value ([1]; consuming at about 100% of potassium's RDA) read?
**A.** approximately 0.5 mmol/L

**Q.** For `CC(O)CCO` (racemic) [racemic 1,3-butanediol, 1,3-butanediol], which “increase in ketones over pre consumption ketone levels” value ([2]; ingestion of 33 ml, FIG. 3) is on record?
**A.** 0.9 to 1.0 mmol/L

**Q.** What about the “ketone blood concentration achieved” value ([2]; ingestion of 33 ml, over a 105-minute period, FIG. 2) of the same compound?
**A.** ≤ 1 mmol/L
